Counter-ions that a name gives are not always drawn.
Columns and labels:
[1] = target: T1, Stearoyl-CoA Desaturase (SCD1) (Mus musculus, UniProt P13516); assay: SCD microsomal assay: release of 3H2O from [9,10-3H]stearoyl-CoA in mouse liver microsomes; type: biochemical; details: 15 min incubation, 25° C.
T1 construct: Reactions are started by adding 50 μL of microsomes (1.25 mg/mL); from tissue; host or cells: liver microsomes of male ICR outbred mice on a high-carbohydrate, low-fat diet
T1 sequence (P13516 1-355): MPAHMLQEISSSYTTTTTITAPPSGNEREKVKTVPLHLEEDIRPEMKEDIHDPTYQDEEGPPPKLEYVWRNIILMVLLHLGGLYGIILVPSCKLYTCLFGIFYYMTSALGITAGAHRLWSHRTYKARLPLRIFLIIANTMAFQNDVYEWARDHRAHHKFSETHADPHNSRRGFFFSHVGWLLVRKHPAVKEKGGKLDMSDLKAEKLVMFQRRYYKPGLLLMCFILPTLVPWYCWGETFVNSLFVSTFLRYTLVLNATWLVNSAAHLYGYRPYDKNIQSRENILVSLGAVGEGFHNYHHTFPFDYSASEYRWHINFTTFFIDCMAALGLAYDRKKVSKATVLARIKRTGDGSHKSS
From the text: Measuring Stearoyl-CoA Desaturase Inhibition Activity of a Test Compound Using Mouse Liver Microsomes
The identification of compounds of the invention as SCD inhibitors was readily accomplished using the SCD microsomal assay procedure described in Shanklin J. and Summerville C., Proc. Natl. Acad. Sci. USA (1991), Vol. 88, pp. 2510-2514.
Male ICR outbread mice, on a high-carbohydrate, low fat diet, under light halothane (15% in mineral oil) anesthesia are sacrificed by exsanguination during periods of high enzyme activity. Livers are immediately rinsed with cold 0.9% NaCl solution, weighed and minced with scissors. All procedures are performed at 4° C. unless specified otherwise. Livers are homogenized in a solution (1/3 w/v) containing 0.25 M sucrose, 62 mM potassium phosphate buffer (pH 7.0), 0.15 M KCl, 15 mM N-acetyleysteine, 5 mM MgCl2, and 0.1 mM EDTA using 4 strokes of a Potter-Elvehjem tissue homogenizer. The homogenate is centrifuged at 10,400×g for 20 min to eliminate mitochondria and cellular debris. The supernatant is filtered through a 3-layer cheesecloth and centrifuged at 105,000×g for 60 min. The microsomal pellet is gently resuspended in the same homogenization solution with a small glass/teflon homogenizer and stored at −70° C. The absence of mitochondrial contamination is enzymatically assessed. The protein concentration is measured using bovine serum albumin as the standard.
Desaturase activity is measured as the release of ^3H2O from [9,10-^3H]stearoyl-CoA. Reactions per assay point conditions are as follows: 2 μL 1.5 mM stearoyl-CoA, 0.25 μL 1 mCi/mL ^3H stearoyl CoA, 10 μL 20 mM NADH, 36.75 μL 0.1 M PK buffer (K2HPO4/NaH2PO4, pH 7.2). The test compound or control solution is added in a 1 μL volume. Reactions are started by adding 50 μL of microsomes (1.25 mg/mL). The plates are mixed and after 15 min incubation on a heating block (25° C.), the reactions are stopped by the addition of 10 μL 60% PCA. An aliquot of 100 μL is then transferred to a filter plate pretreated with charcoal and the plate centrifuged at 4000 rpm for 1 minute. The flow through containing the ^3H2O released by the SCD1 desaturation reaction is added to scintillation fluid and the radioactivity measured in a Packard TopCount. The data is analysed to identify the IC50 for test compounds and reference compounds.

| Compound | melting point | IC50 [1] |
| --- | --- | --- |
| O=C(Nc1cc(-c2nc(Cc3ccccc3)c[nH]2)ccn1)c1ccccc1 [Example 10.2, N-(4-(4-benzyl-1H-imidazol-2-yl)pyridin-2-yl)benzamide] | 110 to 112 °C | 170 nM |
| Cc1cc(CNC(=O)c2ccnc(-n3cnn(Cc4ccc(F)c(F)c4)c3=O)c2)no1 [Example 24, 2-(1-(3,4-Difluorobenzyl)-5-oxo-1H-1,2,4-triazol-4(5H)-yl)-N-((5-methylisoxazol-3-yl)methyl)-isonicotinamide] | 160 to 161 °C | 20 nM |
| COc1cccc(C(=O)Nc2cc(C(=O)NCc3ccccc3)ccn2)c1 [Example 6.4, N-benzyl-2-(3-methoxybenzamido)isonicotinamide] | 95 to 96 °C | 130 nM |
| CN(C)c1ccc(C(=O)Nc2cc(C(=O)NCc3ccccc3)ccn2)cc1 [Example 6.11, N-benzyl-2-(4-(dimethylamino)benzamido)isonicotinamide] | 160 to 165 °C | 20 nM |
| NC(=O)c1ccnc(N2CCN(Cc3ccc(F)c(F)c3)C2=O)c1 [Example 26.30, 2-(3-(3,4-Difluorobenzyl)-2-oxoimidazolidin-1-yl)isonicotinamide] | 195 to 198 °C | 1100 nM |
| O=C(NCc1ccccc1)c1ccnc(NC(=O)c2cc(F)cc(F)c2)c1 [Example 6.8, N-benzyl-2-(3,5-difluorobenzamido)isonicotinamide] | 185 to 187 °C | 410 nM |
| O=C(NCc1ccccn1)c1ccnc(-n2cnn(Cc3ccc(F)c(F)c3)c2=O)c1 [Example 26.29, 2-(1-(3,4-Difluorobenzyl)-5-oxo-1H-1,2,4-triazol-4(5H)-yl)-N-(pyridin-2-ylmethyl)-isonicotinamide] | – | 30 nM |
| O=C(NCc1ccccc1)c1ccnc(NC(=O)c2cccc3ccccc23)c1 [Example 6.7, 2-(1-naphthamido)-N-benzylisonicotinamide] | 65 to 67 °C | – |
| O=C(Nc1cc(-c2nnc(Cc3ccccc3)o2)ccn1)c1ccccc1 [Example 11.1, N-[4-(5-benzyl-[1,3,4]oxadiazol-2-yl)-pyridin-2-yl]benzamide] | 187 to 189 °C | – |
| O=C(NCc1nccs1)c1ccnc(-n2cnn(Cc3ccc(F)c(F)c3)c2=O)c1 [Example 26.28, 2-(1-(3,4-Difluorobenzyl)-5-oxo-1H-1,2,4-triazol-4(5H)-yl)-N-(thiazol-2-ylmethyl)-isonicotinamide] | 161 to 163 °C | – |
| O=C(NCc1ccccc1)c1ccnc(NC(=O)C2CCCC2)c1 [Example 6.2, N-benzyl-2-(cyclopentanecarboxamido)isonicotinamide] | 55 to 57 °C | – |
| O=C(CCc1ccccc1)Nc1cc(C(=O)NCc2ccccc2)ccn1 [Example 5.3, N-benzyl-2-(3-phenylpropanamido)isonicotinamide] | 177 to 179 °C | – |

Now from value to compound:

| melting point | IC50 [1] | Compound |
| --- | --- | --- |
| 198 to 200 °C | 10 nM | Cc1cc(CNC(=O)c2ccnc(-n3cnn(Cc4ccc(F)cc4)c3=O)c2)no1 [Example 26.22, 2-(1-(4-Fluorobenzyl)-5-oxo-1H-1,2,4-triazol-4(5H)-yl)-N-((5-methylisoxazol-3-yl)methyl)-isonicotinamide] |
| 139 to 141 °C | 10 nM | O=C(NCc1nccs1)c1ccnc(N2CCN(Cc3ccc(C(F)(F)F)cc3)C2=O)c1 [Example 23, 2-(2-Oxo-3-(4-(trifluoromethyl)benzyl)imidazolidin-1-yl)-N-(thiazol-2-ylmethyl)isonicotinamide] |
| – | 70 nM | O=C(NCc1ccccn1)c1ccnc(N2CCN(Cc3ccc(F)cc3)C2=O)c1 [Example 15.3, 2-(3-(4-fluorobenzyl)-2-oxoimidazolidin-1-yl)-N-(pyridin-2-ylmethyl)isonicotinamide dihydrochloride] |
| 174 to 176 °C | 190 nM | Cn1cnc(CNC(=O)c2ccnc(N3CCN(Cc4ccc(F)cc4)C3=O)c2)c1 [Example 14.5, 2-(3-(4-fluorobenzyl)-2-oxoimidazolidin-1-yl)-N-((1-methyl-1H-imidazol-4-yl)methyl)isonicotinamide] |
| 129 to 130 °C | 10 nM | Cc1cc(CNC(=O)c2ccnc(N3CCN(Cc4ccc(OC(F)(F)F)cc4)C3=O)c2)no1 [Example 26.13, N-((5-Methylisoxazol-3-yl)methyl)-2-(2-oxo-3-(4-(trifluoromethoxy)-benzyl)imidazolidin-1-yl)isonicotinamide] |
| 173 to 175 °C | 20 nM | O=C(NCc1ccc(F)cc1)c1ccnc(N2CCN(Cc3ccc(F)cc3)C2=O)c1 [Example 15.4, N-(4-fluorobenzyl)-2-(3-(4-fluorobenzyl)-2-oxoimidazolidin-1-yl)isonicotinamide] |
| 153 to 155 °C | 10 nM | Cc1cc(CNC(=O)c2ccnc(N3CCN(Cc4ccc(F)c(F)c4)C3=O)c2)no1 [Example 26.23, 2-(3-(3,4-Difluorobenzyl)-2-oxoimidazolidin-1-yl)-N-((5-methylisoxazol-3-yl)methyl)-isonicotinamide] |
| 153 to 155 °C | 260 nM | Cc1cc(CNC(=O)c2ccnc(N3CCN(Cc4ccc(F)cc4)C3=O)c2)no1 [Example 14.10, 2-(3-(4-fluorobenzyl)-2-oxoimidazolidin-1-yl)-N-((5-methylisoxazol-3-yl)methyl)isonicotinamide] |
| 181 to 183 °C | 120 nM | O=C(NCc1ccccn1)c1ccnc(-n2cnn(Cc3ccc(F)cc3)c2=O)c1 [Example 26.27, 2-(1-(4-Fluorobenzyl)-5-oxo-1H-1,2,4-triazol-4(5H)-yl)-N-(pyridin-2-ylmethyl)-isonicotinamide] |
| 123 to 125 °C | 50 nM | O=C(NCc1ccccn1)c1ccnc(N2CCN(Cc3ccc(OC(F)(F)F)cc3)C2=O)c1 [Example 26.15, 2-(2-Oxo-3-(4-(trifluoromethoxy)benzyl)imidazolidin-1-yl)-N-(pyridin-2-ylmethyl)-isonicotinamide] |
| 169 to 171 °C | 80 nM | Cc1cnc(CNC(=O)c2ccnc(N3CCN(Cc4ccc(F)cc4)C3=O)c2)cn1 [Example 14.2, 2-(3-(4-fluorobenzyl)-2-oxoimidazolidin-1-yl)-N-((5-methylpyrazin-2-yl)methyl)isonicotinamide] |
| 167 to 169 °C | 180 nM | NC(=O)c1ccnc(N2CCN(Cc3ccc(C(F)(F)F)cc3)C2=O)c1 [Example 26.31, 2-(2-Oxo-3-(4-(Trifluoromethyl)-benzyl)imidazolidin-1-yl)isonicotinamide] |
| 153 to 155 °C | 10 nM | Cc1cc(CNC(=O)c2ccnc(N3CCN(Cc4ccc(C(F)(F)F)cc4)C3=O)c2)no1 [Example 26.18, N-((5-Methylisoxazol-3-yl)methyl)-2-(2-oxo-3-(4-(trifluoromethyl)-benzyl)imidazolidin-1-yl)isonicotinamide] |
| 173 to 175 °C | – | O=C(NCc1ccc(F)cc1)c1ccnc(N2CCN(C(F)(F)c3ccc(C(F)F)cc3)C2=O)c1 [Example 15.21, 2-(3-((4-(difluoromethyl)phenyl)difluoromethyl)-2-oxoimidazolidin-1-yl)-N-(4-fluorobenzyl)isonicotinamide] |
| 209 to 211 °C | – | O=C(NCc1cnc(Cl)s1)c1ccnc(N2CCN(Cc3ccc(C(F)(F)F)cc3)C2=O)c1 [Example 26.20, N-((2-Chlorothiazol-5-yl)methyl)-2-(2-oxo-3-(4-(trifluoromethyl)-benzyl)imidazolidin-1-yl)isonicotinamide] |
| 185 to 187 °C | – | O=C(NCc1cccnc1)c1ccnc(N2CCN(Cc3ccc(OC(F)(F)F)cc3)C2=O)c1 [Example 26.16, 2-(2-Oxo-3-(4-(trifluoromethoxy)-benzyl)imidazolidin-1-yl)-N-(pyridin-3-ylmethyl)-isonicotinamide] |
